Test results from ChEMBL document CHEMBL5042527, “Neochrysosporazines: Precursor-Directed Biosynthesis Defines a Marine-Derived Fungal Natural Product P-Glycoprotein Inhibitory Pharmacophore” (J Med Chem, 2022).
Each block holds one compound with its values, some of them ahead of it.

What was measured:
[1] = Metabolic stability of the compound in human SW620/AD300 cells assessed as production of metabolite -Deacetylchrysosporazine B at 2.5 uM for 2 to 48 hrs; format: ADME, cell-based; conditions: sw620/ad300, 2.5 µM, time 2-48 hrs
[2] = Cytotoxicity against human […] cells overexpressing P-glycoprotein measured after 48 hrs by MTT assay; format: functional, cell-based
[3] = Metabolic stability of the compound in human SW620/AD300 cells assessed as production of metabolite -Deacetylchrysosporazine F at 2.5 uM for 2 to 48 hrs; format: ADME, cell-based; conditions: sw620/ad300, 2.5 µM, time 2-48 hrs
[4] = Metabolic stability of the compound in human SW620/AD300 cells assessed as production of metabolite -Deacetylchrysosporazine J at 2.5 uM for 2 to 48 hrs; format: ADME, cell-based; conditions: sw620/ad300, 2.5 µM, time 2-48 hrs
[5] = Metabolic stability of the compound in human SW620/AD300 cells assessed as production of metabolite -Deacetylchrysosporazine C at 2.5 uM for 2 to 48 hrs; format: ADME, cell-based; conditions: sw620/ad300, 2.5 µM, time 2-48 hrs

Stability [1]: Stable
Compound: COc1cc([C@H]2c3ccccc3C(=O)N3C[C@H](C(=O)c4ccccc4)N(C(C)=O)C[C@H]23)cc2c1OCO2
IC50 [2]: > 30 µM

Compound: COc1cc([C@H]2c3cnccc3C(=O)N3C[C@@H](C(=O)c4ccccc4)N(C(C)=O)C[C@H]23)cc2c1OCO2
IC50 [2]: > 30 µM

Compound: COc1cc(/C=C/C(=O)N2C[C@H](Cc3cc(OC)c4c(c3)OCO4)N(C(C)=O)C[C@@H]2Cc2cc(OC)c3c(c2)OCO3)ccc1O
IC50 [2]: > 30 µM

Compound: COc1cc(/C=C2/C(=O)N3C[C@H](Cc4ccccc4)N(C(C)=O)C[C@@H]3[C@H]2c2cc(OC)c3c(c2)OCO3)ccc1O
IC50 [2]: > 30 µM

Compound: CC(=O)N1C[C@H](Cc2cc(O)c3c(c2)OCO3)N(C(=O)c2ccccc2)C[C@@H]1Cc1ccccc1
IC50 [2]: > 30 µM

Compound: COc1cc([C@H]2c3ccccc3C(=O)N3C[C@H](C(=O)c4ccccc4)NC[C@H]23)cc2c1OCO2
IC50 [2]: > 30 µM

Compound: C=C(c1ccccc1)[C@H]1CN2C(=O)c3ccccc3[C@H](c3cc(OC)c4c(c3)OCO4)[C@H]2CN1
IC50 [2]: > 30 µM

Compound: CC(=O)N1C[C@H](Cc2ccccc2)N(C(=O)/C=C/c2ccccc2)C[C@@H]1Cc1ccccc1
IC50 [2]: > 30 µM

Compound: COc1cc(C[C@H]2CN(C(C)=O)[C@@H](Cc3ccccc3)CN2C(=O)c2cccnc2)cc2c1OCO2
IC50 [2]: > 30 µM

Compound: COc1cc([C@@H]2[C@H]3CN(C(C)=O)[C@@H](Cc4ccccc4)CN3C(=O)[C@@]23O[C@H]3c2ccccc2)cc2c1OCO2
IC50 [2]: > 30 µM

Compound: COC1=C[C@]2(C[C@H]3CN(C(C)=O)[C@@H](Cc4ccccc4)CN3C2=O)OC1=O
IC50 [2]: > 30 µM

Compound: COc1c2c(cc3c1[C@H](c1ccccc1)[C@H]1C(=O)N4C[C@H](Cc5ccccc5)NC[C@@H]4[C@@H]31)OCO2
IC50 [2]: > 30 µM

Compound: COc1cc([C@H]2c3ncccc3C(=O)N3C=CN(C(C)=O)C[C@H]23)cc2c1OCO2
IC50 [2]: > 30 µM

Stability [3]: Stable
Compound: COc1cc(C[C@H]2CN3C(=O)[C@@H]4[C@@H](c5ccccc5)c5c(cc6c(c5OC)OCO6)[C@@H]4[C@H]3CN2C(C)=O)cc2c1OCO2
IC50 [2]: > 30 µM

Compound: COc1cc([C@H]2c3cccnc3C(=O)N3C[C@H](Cc4ccccc4)N(C(C)=O)C[C@H]23)cc2c1OCO2
IC50 [2]: > 30 µM

Compound: COc1cc([C@H]2c3cccnc3C(=O)N3C[C@@H](C(=O)c4ccccc4)N(C(C)=O)C[C@H]23)cc2c1OCO2
IC50 [2]: > 30 µM

Compound: COc1cc(C[C@H]2CN3C(=O)[C@]4(O)[C@@H](c5ccccc5)c5c(cc6c(c5OC)OCO6)[C@@H]4[C@H]3CN2C(C)=O)cc2c1OCO2
IC50 [2]: > 30 µM

Compound: COc1cc([C@H]2c3ccccc3C(=O)N3C=CN(C(C)=O)C[C@H]23)cc2c1OCO2
IC50 [2]: > 30 µM

Compound: COc1cc([C@H]2c3cnccc3C(=O)N3C=CN(C(C)=O)C[C@H]23)cc2c1OCO2
IC50 [2]: > 30 µM

Compound: COc1c2c(cc3c1[C@H](c1ccccc1)[C@@]1(O)C(=O)N4C[C@H](Cc5ccccc5)N(C(C)=O)C[C@@H]4[C@@H]31)OCO2
IC50 [2]: > 30 µM

Compound: COc1cc([C@H]2c3cccnc3C(=O)N3C=CN(C(C)=O)C[C@H]23)cc2c1OCO2
IC50 [2]: > 30 µM

Compound: COc1cc([C@H]2c3ccccc3C(=O)N3C[C@@H](C(=O)c4ccccc4)N(C(C)=O)C[C@H]23)cc(OC)c1O
IC50 [2]: > 30 µM

Compound: COc1cc([C@H]2c3cnccc3C(=O)N3C[C@H](C(=O)c4ccccc4)N(C(C)=O)C[C@H]23)cc2c1OCO2
IC50 [2]: > 30 µM

Compound: COc1cc([C@H]2c3ccccc3C(=O)N3C[C@H](C(=O)c4ccccc4)N(C(C)=O)C[C@H]23)cc(OC)c1O
IC50 [2]: > 30 µM

Compound: COc1cc([C@H]2c3cccnc3C(=O)N3C[C@H](C(=O)c4ccccc4)NC[C@H]23)cc2c1OCO2
IC50 [2]: > 30 µM

Compound: COc1cc([C@H]2/C(=C\c3ccccc3)C(=O)N3C[C@H](Cc4ccccc4)N(C(C)=O)C[C@H]23)cc2c1OCO2
IC50 [2]: > 30 µM

Compound: COc1cc([C@H]2c3cnccc3C(=O)N3C[C@@H](C(=O)c4ccccc4)NC[C@H]23)cc2c1OCO2
IC50 [2]: > 30 µM

Compound: COc1cc([C@H]2c3ccncc3C(=O)N3C=CN(C(C)=O)C[C@H]23)cc2c1OCO2
IC50 [2]: > 30 µM

Compound: CC(=O)N1C[C@H](Cc2ccccc2)N(C(=O)c2ccccc2)C[C@@H]1Cc1ccccc1
IC50 [2]: > 30 µM

Compound: COc1cc([C@H]2c3cccnc3C(=O)N3C[C@@H](C(=O)c4ccccc4)NC[C@H]23)cc2c1OCO2
IC50 [2]: > 30 µM

Compound: C=C(c1ccccc1)[C@H]1CN2C(=O)c3ccncc3[C@H](c3cc(OC)c4c(c3)OCO4)[C@H]2CN1
IC50 [2]: > 30 µM

Compound: C=C(c1ccccc1)[C@H]1CN2C(=O)c3ncccc3[C@H](c3cc(OC)c4c(c3)OCO4)[C@H]2CN1
IC50 [2]: > 30 µM

Compound: COc1cc([C@H]2c3cnccc3C(=O)N3C[C@H](C(=O)c4ccccc4)NC[C@H]23)cc2c1OCO2
IC50 [2]: > 30 µM

Compound: COc1cc(C[C@H]2CN3C(=O)[C@@]4(O[C@H]4c4ccccc4)[C@H](c4cc(OC)c5c(c4)OCO5)[C@H]3CN2C(C)=O)cc2c1OCO2
IC50 [2]: > 30 µM

Compound: COc1cc(C[C@H]2CN(C(C)=O)[C@@H](Cc3ccccc3)CN2C(=O)c2ccncc2)cc2c1OCO2
IC50 [2]: > 30 µM

Stability [4]: Stable
Compound: COc1c2c(cc3c1[C@H](c1ccccc1)[C@H]1C(=O)N4C[C@H](Cc5ccccc5)N(C(C)=O)C[C@@H]4[C@@H]31)OCO2
IC50 [2]: > 30 µM

Compound: COc1cc([C@H]2c3ncccc3C(=O)N3C[C@H](Cc4ccccc4)N(C(C)=O)C[C@H]23)cc2c1OCO2
IC50 [2]: > 30 µM

Compound: COc1cc([C@H]2c3cccnc3C(=O)N3C[C@H](C(=O)c4ccccc4)N(C(C)=O)C[C@H]23)cc2c1OCO2
IC50 [2]: > 30 µM

Compound: COc1cc(C[C@H]2CN3C(=O)/C(=C/c4ccccc4)[C@H](c4cc(OC)c5c(c4)OCO5)[C@H]3CN2C(C)=O)cc2c1OCO2
IC50 [2]: > 30 µM

Compound: COc1cc(C[C@H]2CN3C(=O)/C(=C/c4ccc(O)cc4)[C@H](c4cc(OC)c5c(c4)OCO5)[C@H]3CN2C(C)=O)cc2c1OCO2
IC50 [2]: > 30 µM

Compound: COc1cc(/C=C2/C(=O)N3C[C@H](Cc4cc(OC)c5c(c4)OCO5)N(C(C)=O)C[C@@H]3[C@H]2c2cc(OC)c3c(c2)OCO3)ccc1O
IC50 [2]: > 30 µM

Compound: COc1cc(C[C@H]2CN(C(=O)/C=C/c3ccccc3)[C@@H](Cc3cc(OC)c4c(c3)OCO4)CN2C(C)=O)cc2c1OCO2
IC50 [2]: > 30 µM

Compound: COc1cc(C[C@H]2CN(C(C)=O)[C@@H](Cc3ccccc3)CN2)cc(OC)c1O
IC50 [2]: > 30 µM

Compound: COc1cc([C@H]2/C(=C\c3ccc(O)cc3)C(=O)N3C[C@H](Cc4ccccc4)N(C(C)=O)C[C@H]23)cc2c1OCO2
IC50 [2]: > 30 µM

Compound: COc1cc([C@H]2c3cnccc3C(=O)N3C[C@H](Cc4ccccc4)N(C(C)=O)C[C@H]23)cc2c1OCO2
IC50 [2]: > 30 µM

Compound: COc1cc(C[C@H]2CN3C[C@@H]4[C@@H](c5ccccc5)c5c(cc6c(c5OC)OCO6)[C@@H]4[C@H]3CN2)cc2c1OCO2
IC50 [2]: > 30 µM

Compound: COc1cc([C@H]2c3ncccc3C(=O)N3C[C@H](C(=O)c4ccccc4)N(C(C)=O)C[C@H]23)cc2c1OCO2
IC50 [2]: > 30 µM

Compound: COc1cc(C[C@H]2CN(C(C)=O)[C@@H](Cc3ccccc3)CN2C(=O)c2ccccc2)cc(OC)c1O
IC50 [2]: > 30 µM

Stability [5]: Stable
Compound: COc1cc([C@H]2c3ccccc3C(=O)N3C[C@H](Cc4ccccc4)N(C(C)=O)C[C@H]23)cc2c1OCO2
IC50 [2]: > 30 µM

Compound: COc1cc(C[C@H]2CN(C(=O)c3ccccc3)[C@@H](Cc3cc(OC)c4c(c3)OCO4)CN2C(C)=O)cc2c1OCO2
IC50 [2]: > 30 µM

Compound: COc1cc(C[C@H]2CN(C(C)=O)[C@@H](Cc3ccccc3)CN2C(=O)c2ccccn2)cc2c1OCO2
IC50 [2]: > 30 µM

Compound: COc1cc([C@H]2c3ccncc3C(=O)N3C[C@H](Cc4ccccc4)N(C(C)=O)C[C@H]23)cc2c1OCO2
IC50 [2]: > 30 µM

Compound: COc1cc(C[C@H]2CN(C(C)=O)[C@@H](Cc3ccccc3)CN2C(=O)/C=C/c2ccccc2)cc2c1OCO2
IC50 [2]: > 30 µM
